In PMC7770183, “Enhanced Bioavailability of Boswellic Acid by Piper longum: A Computational and Pharmacokinetic Study” (Frontiers in Pharmacology, 2020):
Like-named read-outs stand apart in the source and are kept apart here.

Test: Pharmacokinetic study of β-boswellic acid in rabbits with and without Piper longum extract (serum, HPLC-UV)
Type: in vivo
Details: for AUC(0-t) / AUC(0-inf) / Cmax / Tmax / Vd/F / k el: male, rabbit, serum, po; for AUC(0-t): oral capsule; for Vd/F: read-out: Apparent volume of distribution (Vd/F); for k el: read-out: Ke (converted)
[1] = 20 mg, oral, Control: 20 mg of BA alone
[2] = Test I: 20 mg of BA + 2.5 mg of PL
[3] = Test II: 20 mg of BA + 10 mg of PL

C[C@H]1[C@H](C)CC[C@]2(C)CC[C@]3(C)C(=CC[C@@H]4[C@@]5(C)CC[C@@H](O)[C@](C)(C(=O)O)[C@@H]5CC[C@]43C)[C@H]12 [β-boswellic acid, 3α-hydroxyurs-12-en-24-oic acid]
AUC(0-t) (20 mg, Control: 20 mg of β-boswellic acid (BA) alone): 766 ± 22.8 ng·h/mL | AUC(0-inf) [1]: 772 ± 22.1 ng·h/mL | Cmax [1]: 260 ± 21.3 ng/mL | Tmax [1]: 2 ± 0.18 h | Vd/F [1]: 96 ± 14 L | k el [1]: 0.000131 s⁻¹ | AUC(0-inf) [2]: 2660 ± 102 ng·h/mL | Cmax [2]: 321.4 ± 2.7 ng/mL | Tmax [2]: 2 ± 0.22 h | Vd/F [2]: 43.2 ± 7 L | k el [2]: 5.24e-05 s⁻¹ | AUC(0-inf) [3]: 2850 ± 251 ng·h/mL | Cmax [3]: 359 ± 12 ng/mL | Tmax [3]: 3 ± 0.26 h | Vd/F [3]: 67.5 ± 11 L | k el [3]: 3.07e-05 s⁻¹ | AUC(0-t) (Test I: 20 mg of BA + 2.5 mg of adjuvant (PL)): 1890 ± 109 ng·h/mL | AUC(0-t) (Test II: 20 mg of BA + 10 mg of adjuvant (PL)): 2210 ± 115 ng·h/mL | Ka (oral, Control: 20 mg of BA alone): 0.6168 ± 0.16 h⁻¹ | Ka (oral, Test I: 20 mg of BA + 2.5 mg of PL): 0.740 ± 0.22 h⁻¹ | Ka (oral, Test II: 20 mg of BA + 10 mg of PL): 0.6112 ± 0.17 h⁻¹ | time of complete elimination from serum (oral, β-boswellic acid alone): 9 h
